Each structure is given as a SMILES string. Several values for one entry are separate records, joined by “and”; a condition that tells them apart may be missing. Identical values can stand only once. Inconclusive results and toxic doses are left out.

This note sets out measurements from PubChem BioAssay AID292 (DTP/NCI, 2004).

The assay has as its system B6C3F1 mice, ip Sarcoma M5076, median survival T/C. As to the kind of experiment: NCI In Vivo Anticancer Drug Screen. Data for tumor model Sarcoma M5076 (intraperitoneal) in B6C3F1 mice. The conditions noted are these: endpoint: median survival time, higher = longer survival. How it is done:
The antitumor activity of compounds was measured in mice bearing transplantable tumors. Survival or tumor size were measured and the results are expressed as the measurement made in the treated group (T) divided by the measurement made in the vehicle treated control group (C). The tumor model used in this assay is Sarcoma M5076 (intraperitoneal) in B6C3F1 mice

Setting [1] is: dose: 25.0 mg/kg/injection, schedule: Q04DX004 (ip), vehicle: saline with Tween-80.
The mark [2] stands for this setting: dose: 50.0 mg/kg/injection, schedule: Q04DX004 (ip), vehicle: saline with Tween-80.
Setting [3] is: dose: 100.0 mg/kg/injection, schedule: Q04DX004 (ip), vehicle: saline with Tween-80.
Setting [4] is: dose: 200.0 mg/kg/injection, schedule: Q04DX004 (ip), vehicle: saline with Tween-80.
[5] abbreviates: dose: 400.0 mg/kg/injection, schedule: Q04DX004 (ip), vehicle: saline with Tween-80.
Where [6] appears, read: dose: 25.0 mg/kg/injection, schedule: Q04DX004 (ip), vehicle: saline.
Setting [7] is: dose: 50.0 mg/kg/injection, schedule: Q04DX004 (ip), vehicle: saline.
Where [8] appears, read: dose: 100.0 mg/kg/injection, schedule: Q04DX004 (ip), vehicle: saline.
Setting [9] is: dose: 200.0 mg/kg/injection, schedule: Q04DX004 (ip), vehicle: saline.
[10] abbreviates: dose: 25.0 mg/kg/injection, schedule: Q04DX004 (ip), vehicle: Klucel (hydroxypropylcellulose) (HPC).
[11] abbreviates: dose: 50.0 mg/kg/injection, schedule: Q04DX004 (ip), vehicle: Klucel (hydroxypropylcellulose) (HPC).
Setting [12] is: dose: 100.0 mg/kg/injection, schedule: Q04DX004 (ip), vehicle: Klucel (hydroxypropylcellulose) (HPC).
Setting [13] is: dose: 200.0 mg/kg/injection, schedule: Q04DX004 (ip), vehicle: Klucel (hydroxypropylcellulose) (HPC).
Setting [14] is: dose: 3.6 mg/kg/injection, schedule: Q04DX004 (ip), vehicle: saline.
Where [15] appears, read: dose: 6.0 mg/kg/injection, schedule: Q04DX004 (ip), vehicle: saline.
Setting [16] is: dose: 10.0 mg/kg/injection, schedule: Q04DX004 (ip), vehicle: saline.

In the case of `CC1=C(/C=C/C(C)=C/C=C/C(C)=C/C(=O)Nc2ccc(O)cc2)C(C)(C)CCC1`, the T/C reads like this: under setting [1], 97 % of control; under setting [2], 96 % of control; under setting [3], 105 % of control; under setting [4], 95 % of control; under setting [5], 97 % of control.
In the case of `O=C(Nc1cccc(C(F)(F)F)c1)C(Cl)=C(Cl)Cl`, the T/C runs as follows: (dose: 37.5 mg/kg/injection, schedule: Q04DX004 (ip), vehicle: Klucel (hydroxypropylcellulose) (HPC)) 95 % of control; (dose: 75.0 mg/kg/injection, schedule: Q04DX004 (ip), vehicle: Klucel (hydroxypropylcellulose) (HPC)) 103 % of control; (dose: 150.0 mg/kg/injection, schedule: Q04DX004 (ip), vehicle: Klucel (hydroxypropylcellulose) (HPC)) 102 % of control; (dose: 300.0 mg/kg/injection, schedule: Q04DX004 (ip), vehicle: Klucel (hydroxypropylcellulose) (HPC)) 102 % of control; (dose: 600.0 mg/kg/injection, schedule: Q04DX004 (ip), vehicle: Klucel (hydroxypropylcellulose) (HPC)) 87 % of control.
`CCC(=O)[O][Bi]([c]1ccccc1)[c]1ccccc1`: the T/C is 101 % of control (dose: 3.0 mg/kg/injection, schedule: Q04DX004 (ip), vehicle: Klucel (hydroxypropylcellulose) (HPC)); 98 % of control (dose: 6.0 mg/kg/injection, schedule: Q04DX004 (ip), vehicle: Klucel (hydroxypropylcellulose) (HPC)); 102 % of control (dose: 12.0 mg/kg/injection, schedule: Q04DX004 (ip), vehicle: Klucel (hydroxypropylcellulose) (HPC)); 89 % of control (dose: 24.0 mg/kg/injection, schedule: Q04DX004 (ip), vehicle: Klucel (hydroxypropylcellulose) (HPC)).
In the case of `O=C(CSc1nnc(-c2ccc(Cl)cc2)s1)Nc1nccs1`, the T/C by setting is: (dose: 5.0 mg/kg/injection, schedule: Q04DX004 (ip), vehicle: saline with Tween-80) 101 % of control; (dose: 10.0 mg/kg/injection, schedule: Q04DX004 (ip), vehicle: saline with Tween-80) 95 % of control; (dose: 20.0 mg/kg/injection, schedule: Q04DX004 (ip), vehicle: saline with Tween-80) 93 % of control; (dose: 37.5 mg/kg/injection, schedule: Q04DX004 (ip), vehicle: saline with Tween-80) 90 % of control; (dose: 40.0 mg/kg/injection, schedule: Q04DX004 (ip), vehicle: saline with Tween-80) 88 % of control; (dose: 80.0 mg/kg/injection, schedule: Q04DX004 (ip), vehicle: saline with Tween-80) 88 % of control.
With `CN(C)CCC(=O)C(=Cc1ccc(O)cc1)C(=O)CCN(C)C`, the T/C is 103 % of control under setting [6], 100 % of control under setting [7], 104 % of control under setting [8] and 100 % of control under setting [9].
Take `Nc1nc2ncn(O)c2c(=O)[nH]1`: the T/C was 100 % of control (dose: 3.12 mg/kg/injection, schedule: Q04DX004 (ip), vehicle: water); 100 % of control (dose: 6.25 mg/kg/injection, schedule: Q04DX004 (ip), vehicle: water); 97 % of control (dose: 12.5 mg/kg/injection, schedule: Q04DX004 (ip), vehicle: water); 93 % of control (dose: 25.0 mg/kg/injection, schedule: Q04DX004 (ip), vehicle: water); 101 % of control (dose: 50.0 mg/kg/injection, schedule: Q04DX004 (ip), vehicle: water).
As for `CCc1ccccc1N1CCN(C(=O)c2cc(OC)c(OC)c(OC)c2)CC1`, the T/C is 111 % of control under setting [10], 112 % of control under setting [11] and 122 % of control under setting [12].
As for `NCCn1c(-c2ccccc2)nc2ccccc2c1=O`, the T/C reads like this: under setting [10], 106 % of control; under setting [11], 102 % of control; under setting [12], 109 % of control; under setting [13], 94 % of control.
Regarding `C[C@H](N)C(=O)N[C@@H]1[C@H]2C(=C(O)C[C@@H](O)[C@@H]2O)C(=O)O[C@]1(C)C(Cl)Cl`, the T/C is, setting by setting: (dose: 2.16 mg/kg/injection, schedule: Q04DX004 (ip), vehicle: saline) 159 % of control; under setting [14], 179 % of control; under setting [15], 152 % of control and 164 % of control; under setting [16], 235 % of control.
With `Nc1ccc2c(c1)CN1C(=O)c3ccccc3C1=N2`, the T/C reads like this: under setting [1], 104 % of control; under setting [2], 110 % of control; under setting [3], 116 % of control.
Regarding `NNC(=O)c1ccncc1`, the T/C by setting is: under setting [6], 102 % of control; under setting [7], 102 % of control; under setting [8], 95 % of control; under setting [9], 106 % of control.
In the case of `O=c1nc2[nH]c3c4cccc5cccc(c3nc2c(=O)[nH]1)c54`, the T/C runs as follows: (dose: 12.5 mg/kg/injection, schedule: Q04DX004 (ip), vehicle: Klucel (hydroxypropylcellulose) (HPC)) 103 % of control; under setting [10], 99 % of control; under setting [11], 98 % of control; under setting [12], 94 % of control; under setting [13], 103 % of control.
For `COC(COC(=O)N1CCN(C=O)CC1)C1=C(N2CC2)C(=O)C(C)=C(N2CC2)C1=O` (configuration not stated), the T/C is 124 % of control (dose: 1.5 mg/kg/injection, schedule: Q04DX004 (ip), vehicle: saline); 152 % of control (dose: 3.0 mg/kg/injection, schedule: Q04DX004 (ip), vehicle: saline); 150 % of control under setting [14]; 176 % of control and 190 % of control under setting [15]; 245 % of control under setting [16]; 151 % of control (dose: 12.0 mg/kg/injection, schedule: Q04DX004 (ip), vehicle: saline).
For `O=C(Nc1ccccc1O)C1C(=O)C(=O)N(c2ccccc2O)C1=O` (configuration not stated), the T/C is 106 % of control under setting [2]; 103 % of control under setting [3]; 100 % of control under setting [4]; 100 % of control under setting [5]; 95 % of control (dose: 800.0 mg/kg/injection, schedule: Q04DX004 (ip), vehicle: saline with Tween-80).
In the case of `CC(=O)OC1C(O)C(C)OC(OC2C(OC(=O)C3CCC4C(C3)OC3(CC(OC(=O)/C=C/c5ccccc5)C(C)CO3)C43CO3)OC(C)C(O)C2OC(C)=O)C1O` (configuration not stated), the T/C is, setting by setting: (dose: 1.0 mg/kg/injection, schedule: Q01DX009 (ip), vehicle: saline + alcohol) 100 % of control; (dose: 1.0 mg/kg/injection, schedule: Q04DX004 (ip), vehicle: saline + alcohol) 107 % of control; (dose: 2.0 mg/kg/injection, schedule: Q01DX009 (ip), vehicle: saline + alcohol) 105 % of control; (dose: 2.0 mg/kg/injection, schedule: Q04DX004 (ip), vehicle: saline + alcohol) 112 % of control; (dose: 4.0 mg/kg/injection, schedule: Q01DX009 (ip), vehicle: saline + alcohol) 113 % of control; (dose: 4.0 mg/kg/injection, schedule: Q04DX004 (ip), vehicle: saline + alcohol) 116 % of control. In addition, the T/C (dose: 8.0 mg/kg/injection, schedule: Q01DX009 (ip), vehicle: saline + alcohol) was 121 % of control; the T/C (dose: 12.96 mg/kg/injection, schedule: Q04DX004 (ip), vehicle: saline + alcohol) was 123 % of control; the T/C (dose: 21.6 mg/kg/injection, schedule: Q04DX004 (ip), vehicle: saline + alcohol) was 115 % of control; the T/C (dose: 36.0 mg/kg/injection, schedule: Q04DX004 (ip), vehicle: saline + alcohol) is 157 % of control; the T/C (dose: 60.0 mg/kg/injection, schedule: Q04DX004 (ip), vehicle: saline + alcohol) was 116 % of control; the T/C (dose: 100.0 mg/kg/injection, schedule: Q04DX004 (ip), vehicle: saline + alcohol) is 115 % of control.
Regarding `O=CC(CO)CC(C=O)n1cnc2c(=O)[nH]cnc21` (configuration not stated), the T/C is 104 % of control (dose: 37.0 mg/kg/injection, schedule: Q04DX004 (ip), vehicle: saline); 105 % of control (dose: 75.0 mg/kg/injection, schedule: Q04DX004 (ip), vehicle: saline); 124 % of control (dose: 300.0 mg/kg/injection, schedule: Q04DX004 (ip), vehicle: saline).
Regarding `O=c1[nH]cnc2c1cnn2CN1CCOCC1`, the T/C runs as follows: under setting [10], 99 % of control; under setting [11], 101 % of control; under setting [12], 98 % of control; under setting [13], 112 % of control.
